Results from ChEMBL document CHEMBL5104090, “Recent advances in the medicinal chemistry of carbonic anhydrase inhibitors” (Eur J Med Chem, 2021).

Columns and labels:
Carbonic anhydrase 12 = Carbonic anhydrase 12 (Homo sapiens, UniProt O43570)
in vitro [1] = conditions: human
Description: Selectivity index, ratio of CC50 for cytotoxicity against HGF cells to CC50 for cytotoxicity against human HSC-2 cells by MTT method

Ca9-22 = assay: cells; assay type: functional; conditions: Homo sapiens, time 48 hrs
Description: Cytotoxicity against human Ca9-22 cells assessed as cell growth inhibition measured after 48 hrs by MTT assay

HSC-2 = assay: cells; assay type: functional; conditions: Homo sapiens, time 48 hrs
Description: Cytotoxicity against human HSC-2 cells assessed as cell growth inhibition measured after 48 hrs by MTT assay

Carbonic anhydrase 2 [2] = molecular target: T1, Carbonic anhydrase 2 (Homo sapiens, UniProt P00918)
Carbonic anhydrase 9 = Carbonic anhydrase 9 (Homo sapiens, UniProt Q16790)
in vitro [3] = conditions: human; remark: listed apart in the source
Description: Selectivity index, ratio of CC50 for cytotoxicity against HGF cells to CC50 for cytotoxicity against human Ca9-22 cells by MTT method

in vitro [4] = conditions: human; remark: listed apart in the source
Description: Selectivity index, ratio of CC50 for cytotoxicity against HPLF cells to CC50 for cytotoxicity against human Ca9-22 cells by MTT method

in vitro [5] = conditions: human; remark: listed apart in the source
Description: Selectivity index, ratio of CC50 for cytotoxicity against HPLF cells to CC50 for cytotoxicity against human HSC-2 cells by MTT method

Carbonic anhydrase 1 [6] = molecular target: T2, Carbonic anhydrase 1 (Homo sapiens, UniProt P00915)
T2 sequence (P00915 whole entry): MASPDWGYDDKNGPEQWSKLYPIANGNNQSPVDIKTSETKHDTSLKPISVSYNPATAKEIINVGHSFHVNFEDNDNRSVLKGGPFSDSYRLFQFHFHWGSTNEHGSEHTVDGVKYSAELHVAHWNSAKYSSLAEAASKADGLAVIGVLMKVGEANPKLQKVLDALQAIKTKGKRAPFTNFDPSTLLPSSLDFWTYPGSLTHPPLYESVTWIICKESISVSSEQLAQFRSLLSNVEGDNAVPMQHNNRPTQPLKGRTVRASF

[7] = molecular target: Carbonic anhydrase 5A, mitochondrial (Homo sapiens, UniProt P35218)
Chain of Carbonic anhydrase 5A, mitochondrial (P35218 whole entry): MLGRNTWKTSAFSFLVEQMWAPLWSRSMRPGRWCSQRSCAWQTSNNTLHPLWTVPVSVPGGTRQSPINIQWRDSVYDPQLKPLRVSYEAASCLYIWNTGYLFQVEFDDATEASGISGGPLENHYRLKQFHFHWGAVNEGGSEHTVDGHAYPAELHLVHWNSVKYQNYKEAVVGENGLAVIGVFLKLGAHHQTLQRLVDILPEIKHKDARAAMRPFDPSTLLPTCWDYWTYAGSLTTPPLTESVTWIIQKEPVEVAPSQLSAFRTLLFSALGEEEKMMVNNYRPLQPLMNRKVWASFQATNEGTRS

Carbonic anhydrase 4 = Carbonic anhydrase 4 (Homo sapiens, UniProt P22748)
Chain of Carbonic anhydrase 4 (P22748 whole entry): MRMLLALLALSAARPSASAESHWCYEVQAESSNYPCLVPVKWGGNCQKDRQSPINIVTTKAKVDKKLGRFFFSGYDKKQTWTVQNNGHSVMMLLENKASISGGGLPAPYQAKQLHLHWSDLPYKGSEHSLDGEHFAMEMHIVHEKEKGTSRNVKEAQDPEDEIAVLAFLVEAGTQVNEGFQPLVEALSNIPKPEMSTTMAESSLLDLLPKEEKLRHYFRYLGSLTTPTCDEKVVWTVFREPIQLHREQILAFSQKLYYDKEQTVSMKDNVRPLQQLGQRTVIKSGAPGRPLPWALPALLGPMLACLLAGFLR

Acetylcholinesterase = Acetylcholinesterase (Homo sapiens, UniProt P22303)
Chain of Acetylcholinesterase (P22303 whole entry): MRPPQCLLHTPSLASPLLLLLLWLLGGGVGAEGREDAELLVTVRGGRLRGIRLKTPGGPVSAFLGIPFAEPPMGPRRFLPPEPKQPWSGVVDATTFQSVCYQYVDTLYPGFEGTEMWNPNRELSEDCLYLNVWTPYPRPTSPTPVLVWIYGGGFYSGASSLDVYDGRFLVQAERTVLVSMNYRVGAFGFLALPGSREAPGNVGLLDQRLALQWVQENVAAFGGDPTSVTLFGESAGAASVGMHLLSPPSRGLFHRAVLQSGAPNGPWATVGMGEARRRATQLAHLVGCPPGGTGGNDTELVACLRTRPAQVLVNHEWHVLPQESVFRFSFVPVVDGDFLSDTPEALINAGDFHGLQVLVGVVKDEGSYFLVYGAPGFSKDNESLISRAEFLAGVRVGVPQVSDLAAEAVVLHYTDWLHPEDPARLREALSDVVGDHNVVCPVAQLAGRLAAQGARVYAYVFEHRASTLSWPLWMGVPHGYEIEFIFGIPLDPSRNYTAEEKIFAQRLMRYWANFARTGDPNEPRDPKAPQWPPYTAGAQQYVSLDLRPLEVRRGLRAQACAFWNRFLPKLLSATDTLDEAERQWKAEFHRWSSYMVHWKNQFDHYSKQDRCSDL

Carbonic anhydrase 2 [8] = molecular target: T1, Carbonic anhydrase 2; remark: listed apart in the source
Carbonic anhydrase 1 [9] = molecular target: T2, Carbonic anhydrase 1; remark: listed apart in the source

Chain of Carbonic anhydrase 12 (O43570 whole entry): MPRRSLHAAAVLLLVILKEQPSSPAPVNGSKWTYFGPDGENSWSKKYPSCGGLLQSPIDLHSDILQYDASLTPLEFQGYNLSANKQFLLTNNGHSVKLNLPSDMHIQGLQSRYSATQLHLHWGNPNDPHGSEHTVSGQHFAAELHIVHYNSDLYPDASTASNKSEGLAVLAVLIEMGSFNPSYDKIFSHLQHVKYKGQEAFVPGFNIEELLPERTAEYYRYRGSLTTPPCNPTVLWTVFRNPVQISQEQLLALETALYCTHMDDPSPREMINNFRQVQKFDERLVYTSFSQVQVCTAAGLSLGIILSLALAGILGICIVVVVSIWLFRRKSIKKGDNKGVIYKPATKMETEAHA

**Q.** Which Ki (Carbonic anhydrase 12) does the source give for COc1cc(C2CC(c3ccc(F)cc3)=NN2c2ccc(S(N)(=O)=O)cc2)cc(OC)c1OC (stereo not given) here?
**A.** > 9 nM

**Q.** What about the selectivity ratio (in vitro [1]) of the same compound?
**A.** 1.1

**Q.** What about the CC50 (Ca9-22) of the same compound?
**A.** 6.3 µM

**Q.** And the CC50 (HSC-2)?
**A.** 7.3 µM

**Q.** And the Ki (Carbonic anhydrase 2 [2])?
**A.** 0.089 nM

**Q.** And the Ki (Carbonic anhydrase 9)?
**A.** > 44 nM

**Q.** What about the selectivity ratio (in vitro [3]) of the same compound?
**A.** 1.1

**Q.** What about the selectivity ratio (in vitro [4]) of the same compound?
**A.** 1.1

**Q.** What about the selectivity ratio (in vitro [5]) of the same compound?
**A.** 1.1

**Q.** And the Ki (Carbonic anhydrase 1 [6])?
**A.** > 230 nM

**Q.** Which Ki [7] does the source give for CC(C)[C@@H](NC(=O)OCc1ccccc1)C(=O)NCCc1ccc(S(N)(=O)=O)cc1 here?
**A.** 58.7 nM

**Q.** With COc1cc(S(N)(=O)=O)ccc1-c1nc(-c2cccc(F)c2)no1 as the compound, how does the Ki (Carbonic anhydrase 4) read?
**A.** 8.9 nM

**Q.** Which Ki (Acetylcholinesterase) does the source give for NS(=O)(=O)c1ccc(N2N=C(c3cccs3)CC2c2ccc(Br)cc2)cc1 (stereo not given) here?
**A.** 80.6 nM

**Q.** What about the Ki (Carbonic anhydrase 2 [8]) of the same compound?
**A.** 37.3 nM

**Q.** And the Ki (Carbonic anhydrase 1 [9])?
**A.** 25.6 nM
